From patent publication US12071426B2, “IRE1 small molecule inhibitors” (Cornell University, priority 2018, dated 2024)
pEC50, pIC50: −log10 of the molar value.

What was measured:
[1] = biological target: T1, IRE1a (Homo sapiens, UniProt O75460); assay: IRE1a Endoribonuclease Nanoluciferase Assay (XBP1 luciferase reporter in 293T cells); type: cell-based; parameters: endogenous in cells; host or cells: 293T cells; conditions: 293T cells transfected with XBP1 luciferase reporter plasmid, ER stressors +/- inhibitors
T1 sequence (O75460 19-977): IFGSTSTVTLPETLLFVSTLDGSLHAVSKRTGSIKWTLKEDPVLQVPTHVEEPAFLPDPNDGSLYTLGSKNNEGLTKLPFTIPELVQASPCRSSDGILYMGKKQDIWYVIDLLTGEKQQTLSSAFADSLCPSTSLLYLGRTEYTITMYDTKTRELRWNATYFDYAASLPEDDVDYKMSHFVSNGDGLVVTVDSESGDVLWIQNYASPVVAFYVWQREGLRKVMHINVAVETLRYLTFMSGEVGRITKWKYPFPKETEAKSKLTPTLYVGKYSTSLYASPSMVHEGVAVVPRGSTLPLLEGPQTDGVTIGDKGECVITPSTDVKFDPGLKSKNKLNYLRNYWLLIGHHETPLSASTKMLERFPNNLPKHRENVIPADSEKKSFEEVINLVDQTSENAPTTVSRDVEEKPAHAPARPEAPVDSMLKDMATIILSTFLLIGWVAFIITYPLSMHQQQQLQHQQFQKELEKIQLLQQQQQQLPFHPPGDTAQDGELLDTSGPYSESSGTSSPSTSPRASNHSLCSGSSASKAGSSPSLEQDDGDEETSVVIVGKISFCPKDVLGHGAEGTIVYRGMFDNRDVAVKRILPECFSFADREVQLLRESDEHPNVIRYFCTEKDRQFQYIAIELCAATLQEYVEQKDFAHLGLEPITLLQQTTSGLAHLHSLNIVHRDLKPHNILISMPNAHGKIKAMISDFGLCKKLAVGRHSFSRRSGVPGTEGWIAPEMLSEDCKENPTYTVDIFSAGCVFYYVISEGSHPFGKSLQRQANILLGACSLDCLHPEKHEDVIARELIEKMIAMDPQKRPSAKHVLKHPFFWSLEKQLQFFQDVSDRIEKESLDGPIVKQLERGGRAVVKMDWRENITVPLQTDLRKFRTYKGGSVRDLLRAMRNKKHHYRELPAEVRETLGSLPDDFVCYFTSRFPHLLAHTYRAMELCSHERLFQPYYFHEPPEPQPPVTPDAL
Experimental: Compounds disclosed herein were assessed for disruption of IRE1 signaling using a IRE1a Endoribonuclease Nanoluciferase Assay. Briefly, 2.5×10^6 293T cells were seeded in a 10 cm^2 tissue culture plate. About 24 hours later, the cells were transfected with Effectene. In a 15 mL tube, the following was added: 2 ug XBP1 luciferase reporter plasmid (PGK-Luc2-P2A-XBP1u-Nanoluciferase-PEST); 300 ul EC buffer; and 16 ul Enhancer, followed by incubation at room temp for 5 minutes. Next, 60 ul Effectene (Qiagen 301427) was added, followed by incubation at room temperature for 10 minutes. 2.6 mL cDMEM media was added. Old media was aspirated from the cells, followed by addition of 7 mL fresh media. Full transfection mixture was added dropwise to cells. Cells were incubated for 6 hours, followed by trypsinization, centrifugation and resuspension in 11 mL fresh cDMEM media. 100 uL of cells were plated per a well in a 96 well plate. A day later, ER stressors of choice +/− inhibitors were added. To harvest, media was aspirated from cells completely, then 50 uL 1× passive lysis buffer (Promega: E1941) was added per well and put on shaker (300 rpm) for 30 minutes at room temperature. […] Plates were read on luminometer, 1000 ms integration time per well. […] Plates were read on luminometer, 1000 ms second integration time per well. […]

[2] = Microsome stability assay; type: in vitro ADME; conditions: liver microsomes, 1 μM, 37° C., 0.5 mg/ml microsomal protein
Experimental: The formic acid salt of a compound from Table 1 is tested under the microsome stability assay outlined below. Test compounds are incubated at 37° C. with liver microsomes (pooled from multiple donors) at 1 μM in the presence of a NADPH regenerating system at 0.5 mg/ml microsomal protein. Positive controls included Testosterone (3A4 substrate), Propafenone (2D6) and Diclofenac (2C9), which are incubated with microsomes in the presence of an NADPH regenerating system. At time points (0, 5, 10, 20, 30 and 60 minutes), samples are removed and immediately mixed with cold acetonitrile containing internal standard (IS). Test compounds incubated with microsomes without the NADPH regenerating system for 60 min is also included. A single point for each test condition (n=1) is obtained, and samples are analyzed by LC/MS/MS. Disappearance of the test compound is assessed based on peak area ratios of analyte/IS (no standard curve). […] Compound 1 was tested and had 45% or more of parent compound remaining after a 60 minute incubation.

[3] = biological target: T1, IRE1a; assay: In vitro FRET assay (XBP1 RNA probe cleavage); type: biochemical; conditions: SignalChem IRE1a protein 2 nM, fluorescence 485/515 nm
Experimental: In vitro FRET assay was performed to evaluate the ability of select compounds to inhibit IRE1, the results of which are summarized in Table 3. To perform the in vitro FRET assay, 1× complete assay buffer (CAB; […], 50 mM sodium citrate pH 7.15, 1 mM magnesium acetate, 0.02% tween 20) was used to dilute SignalChem IRE1a protein to a final concentration of 2 nM. Selected compounds were serially diluted with DMSO in a non-binding black 384-well plate for a total of 15 ul in each well. 2 ul of the serially diluted compound or DMSO control were then added to new wells containing 98 ul of 1× CAB, for a total volume of 100 ul, 10 ul of which were then transferred to wells of a new plate. 5 ul of the diluted IRE1a was then added to each well. 5 ul of a […] XBP1 RNA probe was then added to each well. Fluorescence was then read over 30 minutes in kinetic mode (485/515 nm).
Two RNA probes were used, XBP1 wildtype (SEQ ID NO: 2) which is able to be spliced by active IRE1a or XBP1 mutant (SEQ ID NO: 3) which is unable to be spliced. Each probe contained a 5′ 6-FAM modification and a 3′ IOWA Black FQ modification.
A second FRET assay was performed to assess ATP-mediated inhibition. In this case, compounds and IRE1a were prepared and combined as discussed above, with the addition of ATP up to 1 mM final concentration. […] Plates were then read over 30 minutes in kinetic mode (485/515 nm).

| pEC50 [1] | parent compound remaining after a 60 minute incubation [2] [%] | pIC50 [3] | Structure (SMILES) |
| --- | --- | --- | --- |
| ≥ 8.30 | ≥ 45 | ≥ 8.30 | CCc1cc(-c2ccc(NS(=O)(=O)c3cnccc3Cl)nc2C)cc2cnc(N[C@H]3CC[C@H](N(C)C)CC3)nc12 [Compound 1, 4-chloro-N-(5-(2-(((1r,4r)-4-(dimethylamino)cyclohexyl)-amino)-8-ethylquinazolin-6-yl)-6-methylpyridin-2-yl)-pyridine-3-sulfonamide] |
| ≥ 8.30 |  | ≥ 8.30 | CCc1cc(-c2ccc(NS(=O)(=O)c3ccccc3Cl)nc2C)nc2cnc(N[C@H]3CC[C@H](N(C)C)CC3)nc12 [Compound 2, 2-chloro-N-(5-(2-(((1r,4r)-4-(dimethylamino)cyclohexyl)-amino)-8-ethylpyrido[3,2-d]-pyrimidin-6-yl)-6-methyl-pyridin-2-yl)benzenesulfon-amide] |
